Measurements published in PubChem BioAssay (NCI).
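All cell lines were grown in 96-well plates and treated with compound for 48 hours. Abbreviation: GI50, concentration required for 50% inhibition of growth. Definition used: TGI = concentration required for complete inhibition of growth.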

How the values were obtained:
Experiment in all cases: growth of human tumour cells (NCI), 48 h
[1] = system: RPMI-8226 leukemia
[2] = system: OVCAR-3 ovarian
[3] = system: SK-OV-3 ovarian
[4] = system: MCF7 breast
[5] = system: LOX IMVI melanoma
[6] = system: K-562 leukemia
[7] = system: M14 melanoma
[8] = system: ACHN renal
[9] = system: HCC-2998 colon
[10] = system: OVCAR-4 ovarian
[11] = system: A549 NSCLC
[12] = system: MDA-MB-435
[13] = system: U251 CNS
[14] = system: EKVX NSCLC
[15] = system: UO-31 renal
[16] = system: HL-60(TB) leukemia
[17] = system: SK-MEL-5 melanoma
[18] = system: HT29 colon
[19] = system: COLO 205 colon
[20] = system: MALME-3M melanoma
[21] = system: OVCAR-5 ovarian
[22] = system: NCI-H226 lung
[23] = system: SR leukemia
[24] = system: MOLT-4 leukemia
[25] = system: NCI-H460 lung
[26] = system: PC-3 prostate
[27] = system: SK-MEL-2 melanoma
[28] = system: SF-539 CNS
[29] = system: CAKI-1 renal

Question: Which results are given for C[C@H]1[C@H](C)CC[C@]2(C(=O)O)CC[C@]3(C)C(=CC[C@@H]4[C@@]5(C)C/C(=C/c6ccco6)C(=O)C(C)(C)[C@@H]5CC[C@]43C)[C@H]12?
Answer: GI50 [1]: 2.83 µM; TGI [1]: 15.7 µM; GI50 [2]: 3.44 µM; TGI [2]: 11.9 µM; GI50 [3]: 5.83 µM; TGI [3]: 33.9 µM; GI50 [4]: 3.17 µM; TGI [4]: 13 µM; GI50 [5]: 4.51 µM; TGI [5]: 17 µM; GI50 [6]: 3.26 µM; TGI [6]: > 100 µM; GI50 [7]: 5.27 µM; TGI [7]: 21.2 µM; GI50 [8]: 3.6 µM; TGI [8]: 13.5 µM; GI50 [9]: 3.84 µM; TGI [9]: 15.3 µM; GI50 [10]: 11.8 µM; TGI [10]: 33.8 µM; GI50 [11]: 3.71 µM; TGI [11]: 16.8 µM; GI50 [12]: 6.58 µM; TGI [12]: 20.4 µM; GI50 [13]: 4.27 µM; TGI [13]: 17 µM; GI50 [14]: 3.69 µM; TGI [14]: 15.4 µM; GI50 [15]: 2.94 µM; TGI [15]: 13.1 µM; GI50 [16]: 2.44 µM; TGI [16]: 7.04 µM; GI50 [17]: 4.44 µM; TGI [17]: 15.6 µM; GI50 [18]: 5.3 µM; TGI [18]: 34.6 µM; GI50 [19]: 3.6 µM; TGI [19]: 15.1 µM; GI50 [20]: 8.01 µM; TGI [20]: 22.2 µM; GI50 [21]: 7.59 µM; TGI [21]: 21 µM; GI50 [22]: 4.36 µM; TGI [22]: 23.2 µM; GI50 [23]: 4.12 µM; TGI [23]: 50.8 µM; GI50 [24]: 3.17 µM; TGI [24]: 14 µM; GI50 [25]: 3.37 µM; TGI [25]: 11.9 µM; GI50 [26]: 2.89 µM; TGI [26]: 13.3 µM; GI50 [27]: 10.1 µM; TGI [27]: 30.4 µM; GI50 [28]: 4.67 µM; TGI [28]: 16.8 µM; GI50 [29]: 4.55 µM; TGI [29]: 18 µM
